Test results published in patent publication US5462861A, “Method for improving enzyme activities with noble gases” (American Air Liquide, Chicago Research Center, priority 1993, dated 1995).

How the values were obtained:
[1] = test system: β-glucosidase; experiment: Kinetic analyses, β-glucosidase; format: biochemical; set-up: Rates G5 / Rates G5, Calculated: unit not given beside the values
Description: (§1) Absorbance curve data as previously exemplified reveal differences in enzymatic activity under different gas atmospheres both in terms of yield and in terms of rate. Yield can be calculated after equilibrium is reached by comparative curve differencing, and through formal linearization and calculation--which are also necessary for rate calculations. Rate differences are calculated using commercially available computer programs (ENZFITTER, GRAFIT, ENZPACK, PEAKFIT) which transform the initial uv/vis absorbance data curve (in these examples, a power curve) into straight lines (linear regression of power curve). These lines may be expressed as a mathematical equation in which the slope is approximately the rate, and the limit Y-intercept is approximately the yield. […] The examples and figures described below represent these steps in exemplary form.
Table 1 illustrates Michaelis-Menten enzyme kinetics calculations of Vmax and Km, and the rates for each reaction. Vmax is the limiting rate, Km is the Michaelis-Menten constant.
FIG. 46 and Table 2 illustrate the same as FIG. 45 and Table 1, however, for xenon reactions. It is readily apparent that the Vmax and Km for xenon are larger.
FIG. 47, Table 3, FIG. 48 and Table 4 illustrate the first-order power curve regression rate linear transformations for the above air and xenon gassed reactions, showing an approximation to the Michaelis-Menten data, wherein the Xe/Air rate relationship is in the same ratio as above.
FIG. 49, FIG. 50 and Table 5 illustrate the same first-order rate approximation regression linearizations for all gases studied in this run.

[2] = test system: tyrosinase; experiment: Kinetic analyses, tyrosinase; format: biochemical
Description: as §1
FIG. 51, Table 6, FIG. 52 and Table 7 illustrate data from the first 160 seconds of a single tyrosinase experiment expressed as power curves for air, then for xenon gassing.

[3] = biological target: T1, β-D-Glucosidase (Caldicellulosiruptor saccharolyticus, UniProt P10482); experiment: Immobilized enzymes: β-D-glucosidase under air or xenon; format: biochemical, Caldocellum saccharolyticum; details: 25° C., FIG. 44
T1 construct: purchased Sigma G-0898; host or cells: E. coli
T1 sequence (P10482 whole entry): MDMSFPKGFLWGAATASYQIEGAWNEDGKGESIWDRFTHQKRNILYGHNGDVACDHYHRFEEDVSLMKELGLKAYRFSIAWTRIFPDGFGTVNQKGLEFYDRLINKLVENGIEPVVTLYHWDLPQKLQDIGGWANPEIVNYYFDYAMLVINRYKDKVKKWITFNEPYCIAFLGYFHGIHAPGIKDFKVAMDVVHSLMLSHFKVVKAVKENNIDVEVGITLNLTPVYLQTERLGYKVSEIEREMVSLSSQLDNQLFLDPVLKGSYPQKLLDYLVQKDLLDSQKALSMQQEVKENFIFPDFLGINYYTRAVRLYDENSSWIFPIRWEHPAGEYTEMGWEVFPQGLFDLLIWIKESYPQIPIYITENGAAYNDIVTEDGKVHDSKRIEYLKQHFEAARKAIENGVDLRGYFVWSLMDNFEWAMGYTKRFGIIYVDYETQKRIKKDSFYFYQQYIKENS
Description: Theory: Same gases effects on either free or immobilized enzymes.
β-D-Glucosidase (SIGMA) No. G-0898)
From Caldocellum saccharolyticum: Recombinant (pfs)
Soln C1: β-D-Glucosidase solution in Na Phos. buffer pH 6.6 (25 ° C.) (2.18 Units/ml)
(For insoluble enzymes lyophilized powders, SIGMA recommends to suspend the required amount to 5-10 mg solid/ml H2 O and to allow brief hydration). We allowed a brief hydration (until solution appears)
Sample: 2 ml Soln B+0.5 ml Soln C1
CPRG: β-Glucosidase: 25° C.

[4] = test system: particulate sialidase; details: Sandhoff et al, FEBS Letters 1976; cited from earlier work
[5] = 1st order rate equation, [S] = 60 micrograms/ml, Table 4

## [Xe] [Xe, xenon]
[1]
  Vmax and Km compared with air: larger
[1]; [5]
  Limit: 0.8382
  Rate constant: 0.0045
[1]; Michaelis-Menten, Gas 5: Xenon, Table 2
  V max: 0.0028
[1]; [S] 20.0000
  Rates G5: 0.0032
  Rates G5, Calculated: 0.0032
[1]; [S] 40.0000
  Rates G5: 0.0029
  Rates G5, Calculated: 0.0029
[1]; [S] 60.0000
  Rates G5: 0.0027
  Rates G5, Calculated: 0.0029
[1]; [S] 80.0000
  Rates G5: 0.0030
  Rates G5, Calculated: 0.0029
[1]; [S] 100.0000
  Rates G5: 0.0029
  Rates G5, Calculated: 0.0028
[1]; power curve analysis / linearization, FIGS. 49 and 50
  effect on β-glucosidase reaction: significant enhancement
[2]; Michaelis-Menten, Gas 5: Xenon, Table 7, first 160 seconds
  V max: 0.0001
[2]; [S] 10.0000
  Y, Calculated: -0.0001
  Y, Gas 5: Xenon (rate): 0.0007
[2]; [S] 20.0000
  Y, Calculated: -0.0003
  Y, Gas 5: Xenon (rate): 0.0019
[2]; [S] 30.0000
  Y, Calculated: 0.0017
  Y, Gas 5: Xenon (rate): 0.0019
[2]; [S] 40.0000
  Y, Calculated: 0.0004
  Y, Gas 5: Xenon (rate): 0.0019
[2]; [S] 50.0000
  Y, Calculated: 0.0003
  Y, Gas 5: Xenon (rate): 0.0004
[2]; linearized rate regression and Michaelis-Menten calculations
  effect on tyrosinase activity: strongly inhibiting tyrosinase activity
[3]
  effect on β-glucosidase in immobilized form: enhancing
[4]
  effect on activity of particulate sialidase: enhance the activity
